The source of these data is PMC8708872, “Discovery of a Novel Template, 7-Substituted 7-Deaza-4′-Thioadenosine Derivatives as Multi-Kinase Inhibitors” (Pharmaceuticals, 2021).

Data set [1] relates to ACHN. The experiment in a line: Antiproliferative activity against ACHN. It counts as cell-based. The conditions noted are these: Homo sapiens, renal cancer cell line expressing CK1δ and DYRK2, read-out: IC50 cell growth of ACHN.
Data set [2] concerns KM12. The experiment in a line: Antiproliferative activity against KM12. The note with it: Homo sapiens, colon cancer cell line highly expressing NTRK1/2/3 and DYRK3, read-out: IC50 cell growth of KM12. The format is cell-based.
Data set [3] concerns the target T1, DYRK1A (Homo sapiens, UniProt Q13627).
T1 construct: purchased Eurofins DiscoverX Corporation
The data set is described as follows: Kinase inhibition profile, KINOMEscan 11-point dose response. It counts as binding. The note with it: for IC50: 11-point 3-fold serial dilution; for Ki: by Cheng-Prusoff equation.

In data set [4] the test system is SK-HEP-1. The data set is described as follows: SRB cell proliferation inhibition assay. The format is cell-based. The note with it: SK-HEP1, human liver cancer cells, 72 h. The method, then:
(§1) Human lung cancer cells (A549), colorectal cancer (HCT116) cells, breast cancer cells (MDA-MB-231), liver cancer cells (SK-HEP-1), and prostate cancer cells (PC-3) were purchased from the American Type Culture Collection (Manassas, VA, USA). Human gastric cancer cells (SNU-638) were purchased from the Korean Cell Line Bank (Seoul, Korea). Cells were cultured in medium (Dulbecco’s modified Eagle’s medium for MDA-MB-231 and SK-HEP-1 cells; Roswell Park Memorial Institute 1640 for A549, HCT116, SNU-638, PC-3 cells) supplemented with penicillin-streptomycin and 10% fetal bovine serum at 37 °C in a humidified incubator with 5% carbon dioxide. Cells were seeded at a density of 4–7 × 10^4 cells/mL in 96-well culture plates, and then treated with indicated compounds for 72 h. At the end of the experiment, cells were fixed with 10% trichloroacetic acid (TCA) solution and subjected to sulforhodamine B (SRB) assay to determine cell proliferation. The percentage of cell proliferation was calculated with the following formula:Cell proliferation (%) = 100 × [(A treated − A zero day)/(A control − A zero day)], where A is the average absorbance. The IC50 values were calculated through non-linear regression analysis using TableCurve 2D v5.01 (Systat Software Inc., San Jose, CA, USA). All experiments were performed in triplicate and data shown are representative of two or three independent experiments.

For data set [5], the system named is SNU638. The experiment in a line: SRB cell proliferation inhibition assay. The format is cell-based. The note with it: SNU-638, human stomach cancer cells, 72 h. Here is the method: as §1
Data set [6] relates to HCT116. The experiment in a line: SRB cell proliferation inhibition assay. The format is cell-based. The note with it: HCT-116, human colon cancer cells, 72 h. Here is the method:
as §1

Data set [7] concerns A549. The data set is described as follows: SRB cell proliferation inhibition assay. The conditions noted are these: human lung cancer cells, 72 h. The format is cell-based. The method, then:
as §1

The test system of data set [8] is MDA-MB-231. The data set is described as follows: SRB cell proliferation inhibition assay. It counts as cell-based. The note with it: human breast cancer cells, 72 h. Here is the method: as §1
For data set [9], the system named is PC-3. The experiment in a line: SRB cell proliferation inhibition assay. It counts as cell-based. The conditions noted are these: human prostate cancer cells, 72 h. The method, then: as §1
Data set [10] has as its target T2, CK1δ (Homo sapiens, UniProt P48730).
T2 construct: purchased Eurofins DiscoverX Corporation
The experiment in a line: Kinase inhibition profile, KINOMEscan 11-point dose response. The format is binding. The conditions noted are these: for IC50: 11-point 3-fold serial dilution; for Ki: by Cheng-Prusoff equation.

The target of data set [11] is T3, TRKA (Homo sapiens, UniProt P04629).
T3 construct: purchased Eurofins DiscoverX Corporation
T3 sequence (P04629 33-796): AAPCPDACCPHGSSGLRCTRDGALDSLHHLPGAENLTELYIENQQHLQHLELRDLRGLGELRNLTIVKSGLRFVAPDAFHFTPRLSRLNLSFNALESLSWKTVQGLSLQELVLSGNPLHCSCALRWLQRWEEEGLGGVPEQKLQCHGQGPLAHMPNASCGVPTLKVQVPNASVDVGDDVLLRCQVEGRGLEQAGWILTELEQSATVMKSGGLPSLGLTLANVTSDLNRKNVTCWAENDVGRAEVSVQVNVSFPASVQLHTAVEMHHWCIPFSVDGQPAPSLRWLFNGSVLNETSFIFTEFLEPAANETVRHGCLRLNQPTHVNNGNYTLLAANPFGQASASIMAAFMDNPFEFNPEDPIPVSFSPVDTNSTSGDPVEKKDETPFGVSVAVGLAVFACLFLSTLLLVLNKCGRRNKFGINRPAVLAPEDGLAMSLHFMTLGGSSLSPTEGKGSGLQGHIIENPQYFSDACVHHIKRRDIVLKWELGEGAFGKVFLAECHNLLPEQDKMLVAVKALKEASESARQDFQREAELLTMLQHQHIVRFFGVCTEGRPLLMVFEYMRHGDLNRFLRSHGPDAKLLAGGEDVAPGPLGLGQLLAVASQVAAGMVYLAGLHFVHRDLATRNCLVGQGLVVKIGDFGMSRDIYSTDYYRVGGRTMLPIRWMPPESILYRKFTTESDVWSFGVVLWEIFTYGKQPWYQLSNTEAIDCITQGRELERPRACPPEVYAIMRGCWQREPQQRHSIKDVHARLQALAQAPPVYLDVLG
The description is as above. The format is binding. The note with it: for IC50: 11-point 3-fold serial dilution; for Ki: by Cheng-Prusoff equation.

Data set [12] has as its target T4, DYRK1B (Homo sapiens, UniProt Q9Y463).
T4 construct: purchased Eurofins DiscoverX Corporation
The data set is described as follows: Kinase inhibition profile, KINOMEscan 11-point dose response. It counts as binding. The conditions noted are these: for IC50: 11-point 3-fold serial dilution; for Ki: by Cheng-Prusoff equation.

For data set [13], the target named is T5, CYP2C19 (Homo sapiens, UniProt P33261).
T5 construct: Human liver microsomes (0.25 mg/mL); from tissue; host or cells: human liver microsomes
T5 sequence (P33261 whole entry): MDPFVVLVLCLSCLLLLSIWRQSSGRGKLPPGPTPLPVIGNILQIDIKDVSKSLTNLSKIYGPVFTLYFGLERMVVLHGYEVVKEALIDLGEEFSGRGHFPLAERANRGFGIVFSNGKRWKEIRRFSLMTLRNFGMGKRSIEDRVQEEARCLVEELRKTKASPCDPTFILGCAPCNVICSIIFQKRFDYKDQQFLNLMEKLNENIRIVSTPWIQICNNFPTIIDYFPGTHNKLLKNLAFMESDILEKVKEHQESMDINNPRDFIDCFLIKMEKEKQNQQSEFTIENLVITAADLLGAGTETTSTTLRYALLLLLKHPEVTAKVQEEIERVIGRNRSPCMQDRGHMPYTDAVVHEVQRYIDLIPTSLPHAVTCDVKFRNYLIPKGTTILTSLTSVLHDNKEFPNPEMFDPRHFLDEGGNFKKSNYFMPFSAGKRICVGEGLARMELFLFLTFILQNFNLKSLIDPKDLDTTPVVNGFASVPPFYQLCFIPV
The experiment in a line: CYP inhibition assay. It counts as in vitro ADME. The conditions noted are these: human, human liver microsomes, pH 7.4, probe S-mephenytoin 100 μM (in a cocktail of five substrates); inhibitor 0.1 μM; read-out: Percentage of enzyme remaining after inhibition, CYP2C19. The method, then:
(§2) Human liver microsomes (0.25 mg/mL), 0.1 M phosphate buffer (pH 7.4), a cocktail of five […] substrates (Phenacetin 50 μM, Diclofenac 10 μM, S-mephenytoin 100 μM, Dextromethorphan 5 μM, Midazolam 2.5 μM), and test compound (10 μM concentration) was pre-incubated for 5 min at 37 °C. NADPH generation system solution was added and incubated for 15 min at 37 °C. In order to terminate the reaction, acetonitrile solution containing an internal standard (Terfenadine) was added and centrifuged for 5 min (14,000× g […], 4 °C). The supernatant was injected into the LC-MS/MS system to analyze the metabolites of the substrates simultaneously. Metabolites of each substrate produced during the reaction were analyzed using the Shimadzu Nexera XR system and TSQ vantage (Thermo). Kinetex C18 column (2.1 × 100 mm, 2.6 μm particle size; Phenomenex, USA) was used for HPLC. The mobile phase used contained 0.1% formic acid in distilled water (A) and 0.1% formic acid containing acetonitrile (B). The generated metabolites were quantified using MRM (Multiple Reaction Monitoring) and Xcalibur (version 1.6.1) was used for data analysis.
Background: Liver microsomes are vesicles of endoplasmic reticulum, rich in cytochrome P450 enzymes.

Data set [14] addresses T6, CYP2C9 (Homo sapiens, UniProt P11712).
T6 construct: Human liver microsomes (0.25 mg/mL); from tissue; host or cells: human liver microsomes
The data set is described as follows: CYP inhibition assay. The format is in vitro ADME. The note with it: human, human liver microsomes, pH 7.4, probe Diclofenac 10 μM (in a cocktail of five substrates); inhibitor 0.1 μM; read-out: Percentage of enzyme remaining after inhibition, CYP2C9. Here is the method:
as §2

The target of data set [15] is T7, CYP1A2 (Homo sapiens, UniProt P05177).
T7 construct: Human liver microsomes (0.25 mg/mL); from tissue; host or cells: human liver microsomes
T7 sequence (P05177 whole entry): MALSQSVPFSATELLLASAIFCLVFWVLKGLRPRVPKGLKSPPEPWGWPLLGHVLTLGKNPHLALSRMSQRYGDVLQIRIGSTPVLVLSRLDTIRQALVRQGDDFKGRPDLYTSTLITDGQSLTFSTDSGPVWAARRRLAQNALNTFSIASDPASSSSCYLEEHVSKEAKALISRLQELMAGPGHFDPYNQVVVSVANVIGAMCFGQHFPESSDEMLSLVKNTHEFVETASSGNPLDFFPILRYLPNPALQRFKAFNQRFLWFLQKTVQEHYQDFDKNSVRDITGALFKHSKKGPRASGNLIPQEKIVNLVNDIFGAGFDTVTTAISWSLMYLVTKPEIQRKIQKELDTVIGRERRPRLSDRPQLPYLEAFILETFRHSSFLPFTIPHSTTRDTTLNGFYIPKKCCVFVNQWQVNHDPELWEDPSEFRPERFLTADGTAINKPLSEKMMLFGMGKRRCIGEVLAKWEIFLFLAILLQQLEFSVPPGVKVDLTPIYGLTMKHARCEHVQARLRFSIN
The experiment in a line: CYP inhibition assay. It counts as in vitro ADME. The note with it: human, human liver microsomes, pH 7.4, probe Phenacetin 50 μM (in a cocktail of five substrates); inhibitor 0.1 μM; read-out: Percentage of enzyme remaining after inhibition, CYP1A2. Here is the method: as §2

T4 sequence (Q9Y463 whole entry): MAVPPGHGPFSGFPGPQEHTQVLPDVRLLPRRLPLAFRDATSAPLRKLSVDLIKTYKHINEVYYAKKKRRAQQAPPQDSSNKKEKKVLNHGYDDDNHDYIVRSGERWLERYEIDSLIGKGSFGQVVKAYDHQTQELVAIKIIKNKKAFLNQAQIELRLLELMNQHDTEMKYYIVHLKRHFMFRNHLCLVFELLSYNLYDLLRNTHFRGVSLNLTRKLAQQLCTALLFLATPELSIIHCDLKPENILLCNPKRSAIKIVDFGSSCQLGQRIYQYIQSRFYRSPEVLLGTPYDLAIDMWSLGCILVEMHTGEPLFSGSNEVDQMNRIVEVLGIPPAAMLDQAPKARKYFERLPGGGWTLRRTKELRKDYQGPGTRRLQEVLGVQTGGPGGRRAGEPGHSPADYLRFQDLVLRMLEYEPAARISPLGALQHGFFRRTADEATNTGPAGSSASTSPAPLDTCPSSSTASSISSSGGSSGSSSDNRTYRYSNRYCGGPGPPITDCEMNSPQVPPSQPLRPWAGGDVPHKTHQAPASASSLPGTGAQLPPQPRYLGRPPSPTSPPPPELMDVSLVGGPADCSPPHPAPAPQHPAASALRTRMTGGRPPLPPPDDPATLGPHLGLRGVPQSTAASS
T2 sequence (P48730 whole entry): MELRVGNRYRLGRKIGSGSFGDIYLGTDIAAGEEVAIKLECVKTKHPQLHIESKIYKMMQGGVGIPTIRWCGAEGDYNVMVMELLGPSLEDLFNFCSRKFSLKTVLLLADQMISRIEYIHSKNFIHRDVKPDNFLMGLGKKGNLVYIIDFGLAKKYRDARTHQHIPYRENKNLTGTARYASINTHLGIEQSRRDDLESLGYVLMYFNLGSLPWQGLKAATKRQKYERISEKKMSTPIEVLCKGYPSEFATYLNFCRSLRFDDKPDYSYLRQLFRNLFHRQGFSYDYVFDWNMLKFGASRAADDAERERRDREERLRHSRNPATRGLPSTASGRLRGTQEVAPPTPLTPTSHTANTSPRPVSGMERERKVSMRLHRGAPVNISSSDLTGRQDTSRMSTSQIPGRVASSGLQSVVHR
T6 sequence (P11712 whole entry): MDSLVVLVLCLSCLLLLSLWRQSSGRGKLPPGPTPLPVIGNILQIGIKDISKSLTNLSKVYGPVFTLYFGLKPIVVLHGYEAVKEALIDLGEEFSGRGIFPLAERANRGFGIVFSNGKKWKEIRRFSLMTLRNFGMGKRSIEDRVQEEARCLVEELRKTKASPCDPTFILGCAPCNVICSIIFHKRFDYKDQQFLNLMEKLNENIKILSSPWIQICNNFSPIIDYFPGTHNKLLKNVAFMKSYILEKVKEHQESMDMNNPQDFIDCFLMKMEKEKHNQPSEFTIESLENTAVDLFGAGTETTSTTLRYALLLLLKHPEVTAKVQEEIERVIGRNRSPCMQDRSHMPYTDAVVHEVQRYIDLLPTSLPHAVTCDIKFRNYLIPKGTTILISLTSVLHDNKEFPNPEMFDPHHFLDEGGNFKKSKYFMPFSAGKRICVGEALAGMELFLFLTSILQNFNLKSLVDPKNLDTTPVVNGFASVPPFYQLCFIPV

As a reminder, the IC50 is the midpoint of a concentration-inhibition curve. Consider `COc1cccc2c1C(=O)c1c(O)c3c(c(O)c1C2=O)C[C@@](O)(C(=O)CO)C[C@@H]3O[C@H]1C[C@H](N)[C@H](O)[C@H](C)O1` [doxorubicin, reference compound], for which the figures for the IC50 in data set [1] and in data set [2] were 40 nM and 120 nM, respectively.

Broadly, the Ki is a measure of affinity in units of concentration, obtained from inhibition or displacement. Read a low Ki as a stronger hold on the target. In general, melting point refers to the temperature, or range, at which the solid turns liquid. Consider `C=Cc1cn([C@@H]2S[C@H](CO)[C@@H](O)[C@H]2O)c2ncnc(N)c12` [Compound 1c, (2R,3R,4S,5R)-2-(4-Amino-5-vinyl-7H-pyrrolo[2,3-d]pyrimidin-7-yl)-5-(hydroxymethyl)tetrahydrothiophene-3,4-diol], for which the melting point was 110 to 112 °C. In [3], this molecule yielded an IC50 of 112 nM and a Ki of 224 nM. In data set [4], this molecule displayed an IC50 of 220 nM. The IC50 in [5] stood at 470 nM. This molecule gave an IC50 in [6] of 560 nM. This molecule came in with an IC50 in data set [7] of 970 nM. The IC50 in data set [8] was 310 nM. In data set [9], the IC50 was 200 nM. In data set [10], this molecule yielded an IC50 of 77 nM and a Ki of 77 nM. Further, in [11], the midpoint of inhibition, the IC50, lay at 474 nM and the Ki was determined as 948 nM. In data set [12], this molecule showed an IC50 of 86 nM and a Ki of 86 nM.

Molecule `CC#Cc1cn([C@@H]2S[C@H](CO)[C@@H](O)[C@H]2O)c2ncnc(N)c12` [Compound 1h, (2R,3R,4S,5R)-2-(4-Amino-5-(prop-1-yn-1-yl)-7H-pyrrolo[2,3-d]pyrimidin-7-yl)-5-(hydroxymethyl)tetrahydrothiophene-3,4-diol] showed a melting point of 190 to 192 °C. For the same molecule, in [3], the IC50 worked out at 1260 nM and the affinity, expressed as Ki, was 2510 nM. In addition, 6050 nM corresponded to half-maximal inhibition in [4] (IC50). The same molecule had an IC50 in data set [5] of more than 50000 nM. The molecule further showed an IC50 in [6] of more than 50000 nM. The molecule also came in with an IC50 in [7] of more than 50000 nM. In [8], this molecule displayed an IC50 of 45500 nM. In data set [9], this molecule had an IC50 of more than 50000 nM. In data set [10], this molecule yielded an IC50 of 970 nM and a Ki of 970 nM. In [11], this molecule came in with an IC50 of 293 nM and a Ki of 586 nM. Further, in data set [12], the IC50 was 1070 nM and the affinity, expressed as Ki, was 1070 nM.

Broadly, the amount remaining is what is left of the initial amount, in per cent. For the molecule `CC(=O)N1CCN(c2ccc(OCC3COC(Cn4ccnc4)(c4ccc(Cl)cc4Cl)O3)cc2)CC1` (centres unmarked) [Ketoconazole, reference compound], the figures for the fraction remaining at 15 min, 0.1 μM in data set [13], in [14] and in data set [15] were 93.6%, 93.6% and 95.7%, respectively.

`Nc1ncnc2c1c(C#CC1CC1)cn2[C@@H]1S[C@H](CO)[C@@H](O)[C@H]1O` [Compound 1k, (2R,3R,4S,5R)-2-(4-Amino-5-(cyclopropylethynyl)-7H-pyrrolo[2,3-d]pyrimidin-7-yl)-5-(hydroxymethyl)tetrahydrothiophene-3,4-diol] showed a melting point of 166 to 168 °C. In addition, the IC50 in data set [3] was more than 10000 nM. In addition, 8310 nM corresponded to half-maximal inhibition in data set [4] (IC50). Besides, the IC50 in [5] is more than 50000 nM. Moreover, in data set [6], the IC50 is more than 50000 nM. The IC50 in data set [7] is more than 50000 nM. Besides, in data set [8], inhibition was half-maximal at 30600 nM (IC50). In data set [9], this molecule showed an IC50 of more than 50000 nM. In data set [10], this molecule returned an IC50 of 1780 nM and a Ki of 1780 nM. Also, in data set [11], the IC50 is 393 nM. This molecule returned a half-inhibitory concentration (IC50) in data set [12] of more than 10000 nM.
